SMILES strings stand for the structures. Counter-ions that a name gives are not always drawn.

For assay [1], the system named is cultured human mast cells (CHMC). As to the kind of experiment: CHMC low cell density ionomycin activation: tryptase assay. Format: cell-based. The conditions noted are these: Homo sapiens, Mast cell, Low Density CHMC, ionomycin activation, tryptase readout; read-out: CHMC Ionomycin Tryptase.
For assay [2] the test system is unchanged. As to the kind of experiment: CHMC low cell density IgE activation: tryptase and LTC4 assays. To be noted: Homo sapiens, Mast cell, Low Density CHMC, anti-IgE activation, tryptase readout; read-out: CHMC anti-IgE Tryptase. Format: cell-based. The method, boiled down: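 Degranulation measured after 30 min anti-IgE challenge at 37° C of CHMC plated at 1000-1500 cells/well following 1 h preincubation. Readouts: LTC4 by ELISA on donor-specific diluted supernatants, and tryptase activity from a 30 min room-temperature substrate reaction.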

As for `CCOC(=O)Cc1ccc(Nc2ncc(C#N)c(Nc3ccc(CC(=O)OCC)cc3)n2)cc1` [Compound R926662, N2,N4-Bis[4-(ethoxycarbonylmethyl)phenyl]-5-cyano-2,4-pyrimidinediamine], the IC50 in assay [1] and in assay [2] was over 10 µM throughout.

In the case of `O=C1COc2ccc(Nc3nc(Nc4cccc(O)c4)ncc3F)cc2N1` [Compound R908702, N4-(1,4-Benzoxazine-3-on-6-yl)-5-fluoro-N2-(3-hydroxyphenyl)-2,4-pyrimidinediamine], the values for the IC50 in assay [1] and in assay [2] were 7.4 µM and 0.104 µM, respectively.

Turning to `Oc1cccc(Nc2nc(Nc3ccc4c(c3)OCC=N4)ncc2F)c1` [Compound R908706, N2-(1,4-Benzoxazin-7-yl)-5-fluoro-N4-(3-hydroxyphenyl)-2,4-pyrimidinediamine], the IC50 in assay [1] was over 10 µM; in assay [2], 0.445 µM.

For the compound `Fc1cnc(Nc2ccc(-n3cnc(Cl)c3Cl)cc2)nc1Nc1ccc2c(c1)OCCO2` [Compound R926788, N2-[4-(4,5-Dichloro-1H-imidazol-1-yl)phenyl]-N4-(3,4-ethylenedioxyphenyl)-5-fluoro-2,4-pyrimidinediamine], the IC50 in assay [1] was 6.34 µM; in assay [2], 0.336 µM.

For the compound `CCOC(=O)c1cc2cc(Nc3ncc(F)c(Nc4cccc(O)c4)n3)ccc2[nH]1` [Compound R926615, N2-(2-Ethoxycarbonylindol-5-yl)-5-fluoro-N4-(3-hydroxyphenyl)-2,4-pyrimidinediamine], the IC50 in assay [1] is over 10 µM; in assay [2], 0.445 µM.

As for `CCOC(=O)c1cnc(Nc2cccc(O)c2)nc1NOCc1ccccc1` [Compound R925824, N4-Benzyloxy-5-ethoxycarbonyl-N2-(3-hydroxyphenyl)-2,4-pyrimidinediamine], the IC50 in assay [1] and in assay [2] was over 10 µM each time.

Turning to `N#Cc1ccc(Nc2ncc(F)c(Nc3ccc(C#N)cc3)n2)cc1` [Compound R945057, N2,N4-Bis(4-cyanophenyl)-5-fluoro-2,4-pyrimidinediamine], the IC50 in assay [1] is over 10 µM; in assay [2], 10 µM.

Take `O=S(=O)(c1ccc(Nc2ncc(F)c(Nc3ccc4c(c3)OCCO4)n2)cc1)N1CCCC1` [Compound R926716, N4-(3,4-Ethylenedioxyphenyl)-5-fluoro-N2-[4-(tetrahydro-(1H)-pyrrol-1-ylsulfonyl)phenyl]-2,4-pyrimidinediamine]: the IC50 is over 10 µM in assay [1] and 1.06 µM in assay [2].

In the case of `Oc1ccc(Nc2ncc(F)c(Nc3ccc(O)c(C(F)(F)F)c3)n2)cc1C(F)(F)F` [Compound R950093, N2,N4-Bis(4-hydroxy-3-trifluoromethylphenyl)-5-fluoro-2,4-pyrimidinediamine], the IC50 worked out at 5.55 µM in assay [1] and 0.64 µM in assay [2].

`Cc1cnc(Nc2ccc3c(c2)OCCO3)nc1Nc1ccc2c(c1)OCCO2` [Compound R926242, N2,N4-Bis(3,4-ethylenedioxyphenyl)-5-methyl-2,4-pyrimidinediamine]: the IC50 in assay [1] was over 10 µM; in assay [2], 4.2 µM.

With `CC(C)(C)c1ccc(Nc2nc(Nc3ccc4oc(C(=O)O)cc4c3)ncc2F)cc1` [Compound R926481, N4-(4-tert-Butylphenyl)-N2-(2-carboxybenzofuran-5-yl)-5-fluoro-2,4-pyrimidinediamine], the IC50 in assay [1] is over 10 µM; in assay [2], 1.45 µM.

Regarding `CC(C)c1ccc(Nc2ncc(F)c(Nc3cccc(O)c3)n2)cc1` [Compound R926778, 5-Fluoro-N4-(3-hydroxyphenyl)-N2-(4-isopropylphenyl)-2,4-pyrimidinediamine], the IC50 was over 10 µM in assay [1] and 0.414 µM in assay [2].

On to `COC(=O)c1ccc(-c2cnc(Nc3ccc4c(c3)OCCO4)nc2Nc2ccc3c(c2)OCCO3)cc1` [Compound R925813, N2,N4-Bis(3,4-ethylenedioxyphenyl)-5-(4-methoxycarbonylphenyl)-2,4-pyrimidinediamine], for which the IC50 in assay [1] and in assay [2] was over 10 µM in each case.

As to `Nc1cc(Nc2ncc(F)c(Nc3ccc(F)c(N)c3)n2)ccc1F` [Compound R950159, N2,N4-Bis(3-amino-4-fluorophenyl)-5-fluoro-2,4-pyrimidinediamine], the results for the IC50 in assay [1] and in assay [2] were over 10 µM and 0.61 µM, respectively.

Turning to `NC(=O)C=Nc1cccc(Nc2ncc(F)c(Nc3cccc(O)c3)n2)c1` [Compound R950219, N2-(3-Aminocarbonylmethyleneaminophenyl)-5-fluoro-N4-(3-hydroxyphenyl)-2,4-pyrimidinediamine], the IC50 was over 10 µM in assay [1] and 0.439 µM in assay [2].

Take `COC(=O)c1cc2cc(Nc3ncc(F)c(Nc4ccc5c(c4)OCCO5)n3)ccc2o1` [Compound R926690, N4-(3,4-Ethylenedioxyphenyl)-5-fluoro-N2-[2-(methoxycarbonyl)benzofuran-5-yl]-2,4-pyrimidinediamine]: the IC50 in assay [1] is over 10 µM; in assay [2], 0.146 µM.

Turning to `CCOC(=O)c1cc2cc(Nc3ncc(F)c(Nc4ccc5c(c4)OCCO5)n3)ccc2[nH]1` [Compound R926476, N2-(2-Ethoxycarbonylindol-5-yl)-N4-(3,4-ethylenedioxyphenyl)-5-fluoro-2,4-pyrimidinediamine], the IC50 is 7.7 µM in assay [1] and 0.6 µM in assay [2].

For `CC(C)(C)OC(=O)C=Nc1cccc(Nc2nc(Nc3cccc(N)c3)ncc2F)c1` [Compound R950179, N2-(3-Aminophenyl)-N4-(3-tert-butoxycarbonylmethyleneaminophenyl)-5-fluoro-2,4-pyrimidinediamine], the results for the IC50 in assay [1] and in assay [2] were over 10 µM and 0.955 µM, respectively.

On to `Fc1cnc(Nc2ccc3c(c2)OCCO3)nc1NC1CCCCC1` [Compound R925794, N4-Cyclohexyl-N2-(3,4-ethylenedioxyphenyl)-5-fluoro-2,4-pyrimidinediamine], for which the IC50 in assay [1] and in assay [2] was over 10 µM throughout.

Take `Cc1cc(Nc2ncc(F)c(Nc3cccc(C(C)(C)C)c3)n2)cc(Cl)c1O` [Compound R940271, N4-(3-tert-Butylphenyl)-N2-(3-chloro-4-hydroxy-5-methylphenyl)-5-fluoro-2,4-pyrimidinediamine]: the results for the IC50 in assay [1] and in assay [2] were 6.82 µM and 0.401 µM, respectively.

For `CN(C)CCOc1cccc(Nc2ncc(F)c(Nc3ccc4c(c3)OCCO4)n2)c1` [Compound R926771, N2-[3-[2-(N, N-Dimethylamino)ethyloxy]phenyl]-N4-(3,4-Ethylenedioxyphenyl)-5-fluoro-2,4-pyrimidinediamine Hydrogen Chloride Salt], the IC50 in assay [1] was over 10 µM; in assay [2], 2.05 µM.

`CCOC(=O)C=Nc1ccc(Nc2ncc(C(=O)OCC)c(Nc3ccc(N=CC(=O)OCC)cc3)n2)cc1` [Compound R926331, N2,N4-Bis(4-ethoxycarbonylmethyleneaminophenyl)-5-ethoxycarbonyl-2,4-pyrimidinediamine]: the IC50 in assay [1] and in assay [2] was over 10 µM each time.

Consider `COc1ccc(Nc2nc(Nc3cccc(C(C)(C)C)c3)ncc2F)cc1OC` [Compound R940260, N2-(3-tert-Butylphenyl)-N4-(3,4-dimethoxyphenyl)-5-fluoro-2,4-pyrimidinediamine], for which the figures for the IC50 in assay [1] and in assay [2] were over 10 µM and 1.13 µM, respectively.

The values above are taken from patent US10828301B2, “2,4-pyrimidinediamine compounds and their uses” (Rigel Pharmaceuticals, Inc, priority 2002, dated 2020).
